Results as given in patent US4061639A, “Quinolinesulfonyl compounds” (The Dow Chemical Company, priority 1976, dated 1977).

How the values were obtained:
Experiment in all cases: agar dilution antimicrobial test (growth inhibition)
Format in all cases: cell-based
[1] = test system: C. ips; conditions: read-out: Percent Growth Inhibition
Experimental: (§1) In representative activity tests, 8-quinolinesulfonyl bromide is dispersed in warm melted nutrient agar which is then poured into petri dishes and allowed to solidify, the quinoline compound being employed in an amount sufficient to provide from 10 to 500 parts by weight thereof per million parts (ppm) of the ultimate agar composition. The surface of the agar is then inoculated with a variety of bacterial and fungal pest organisms, and the inoculated plates are incubated under conditions conducive to bacterial and fungal growth. Similar check plates in which the agar contains no active quinoline or other toxic compound are similarly inoculated and incubated.
(§2) In such operations, 8-quinolinesulfonyl bromide gave 100% growth inhibition (kills) and control of the following organisms at the indicated concentrations in parts per million:
(§3) In comparative operations, 8-quinolinesulfonyl chloride was tested for antimicrobial activity at 500 ppm using identical agar dilution tests. The following table indicates the percent growth inhibition of the following organisms: […]

[2] = test system: B. subtilis; conditions: Bacillus subtilis, read-out: Percent Growth Inhibition
Experimental: as §1, §2, §3

[3] = test system: M. phlei; conditions: Mycolicibacterium phlei, read-out: Percent Growth Inhibition
Experimental: as §1, §2, §3

[4] = test system: S. typhosa; conditions: read-out: Percent Growth Inhibition
Experimental: as §1, §2, §3

[5] = test system: S. aureus; conditions: Staphylococcus aureus, read-out: Percent Growth Inhibition
Experimental: as §1, §2, §3

[6] = test system: E. coli; conditions: Escherichia coli, read-out: Percent Growth Inhibition
Experimental: as §1, §2, §3

[7] = test system: R. nigricans; conditions: Rhizopus stolonifer, read-out: Percent Growth Inhibition
Experimental: as §1, §2, §3

[8] = test system: Trichoderm Sp. Madison P-42; conditions: read-out: Percent Growth Inhibition
Experimental: as §1, §2, §3

[9] = test system: A. aerogenes; conditions: Klebsiella aerogenes, read-out: Percent Growth Inhibition
Experimental: as §1, §2, §3

[10] = test system: C. pelliculosa; conditions: Hansenula anomala, read-out: Percent Growth Inhibition
Experimental: as §1, §2, §3

[11] = test system: P. Str-10; conditions: read-out: Percent Growth Inhibition
Experimental: as §1, §2, §3

[12] = test system: P. pullulans; conditions: read-out: Percent Growth Inhibition
Experimental: as §1, §2, §3

[13] = test system: C. albicans; conditions: Candida albicans, read-out: Percent Growth Inhibition
Experimental: as §1, §2, §3

Which results are given for `O=S(=O)(Cl)c1cccc2cccnc12` [8-Quinolinesulfonyl Chloride, 8-quinolinesulfonyl chloride]?
inhibition at 500 ppm [1]: 0%; inhibition at 500 ppm [2]: 0%; inhibition at 500 ppm [3]: 50%; inhibition at 500 ppm [4]: 0%; inhibition at 500 ppm [5]: 0%; inhibition at 500 ppm [6]: 0%; inhibition at 500 ppm [7]: 0%; inhibition at 500 ppm [8]: 0%; inhibition at 500 ppm [9]: 0%; inhibition at 500 ppm [10]: 0%; inhibition at 500 ppm [11]: 0%; inhibition at 500 ppm [12]: 0%; inhibition at 500 ppm [13]: 0%
